Data reported in publication PMC6010545, “Identification of a Novel Polyamine Scaffold With Potent Efflux Pump Inhibition Activity Toward Multi-Drug Resistant Bacterial Pathogens” (Frontiers in Microbiology, 2018).
Where two headings read alike, the source gives them in different places.

Assays:
[1] = tested on: tetracycline-resistant P. aeruginosa isolate 1419; assay: Checkerboard potentiation assay with tetracycline; type: cell-based, Pseudomonas aeruginosa; conditions: for EC50: Pseudomonas aeruginosa, 20 h, inhibitor alone, 25 μg mL^-1 highest concentration tested, read-out: EPI* (inhibitory concentration of efflux pump inhibitor alone); for TPI (inhibitory concentration of polyamine alone): 25 µg ml-1 highest tested
Method: (§1) Scaffold ranking library samples and individual polyamines were screened using checkerboard inhibitory assays to assess the potentiation of tetracycline and chloramphenicol. The test utilized a 96-well plate microtiter assay where the concentration of the scaffold or individual polyamine was decreased from 25 to 0.8 μg mL^-1 (average molarity of mixture samples 65 to 4 μM) along the rows, and the concentration of tetracycline or chloramphenicol was increased from 0.4 to 100 μM across the columns. […] However, with the known antibiotics, we report EC90 values in μM, which more accurately describes purified compounds. Plates were incubated statically at 37°C for 20 h, and the optical density (OD600) was determined using a Synergy 2 plate reader (BioTek). Potentiation modeling (detailed below) was performed to determine fold change in the 50 and 90% effective concentration of tetracycline or chloramphenicol.
Potentiation was quantified using a mathematical model developed by our group to assess the ability of library samples and individual compounds to effectively enhance the activity of tetracycline or chloramphenicol ([Hoel, 1987]). […] In this way, only libraries and compounds that potentiated tetracycline or chloramphenicol activity were pursued. The model is based on the following equation for modeling the percentage activity of a mixture of two agents with independent action ([Hoel, 1987]):
%Antibiotic & Comp(X1,X2)=%Antibiotic(X1)+%Comp(X2)−%Antibiotic(X1)⋅%Comp(X2)
Here, x1 and x2 are the concentrations of antibiotic (tetracycline or chloramphenicol) and library/compound (Comp) tested, respectively. This equation can be rearranged to model the effective percent activity (EC) of the antibiotic alone, after accounting for compound activity:
Eff%Antibiotic(X1)=%Antibiotic & Compound(X1,X2)−%Compound(X2)/1−%Compound(X2)
Thus, the model-adjusted checkerboards show the antibiotic activity post-potentiation, and from that one can determine the true change in Mic.

P. aeruginosa (1419) = assay: Checkerboard potentiation assay with chloramphenicol; type: cell-based; conditions: increasing polyamine concentration
Method: as §1
Potentiation was quantified using a mathematical model developed by our group to assess the ability of library samples and individual compounds to effectively enhance the activity of tetracycline or chloramphenicol ([Hoel, 1987]). […] In this way, only libraries and compounds that potentiated tetracycline or chloramphenicol activity were pursued. […]

MTT cytotoxicity assay = type: cell-based; conditions: human, 25 μg mL^-1, 48 h, read-out: percent recovery (cell viability)
Method: To assess toxicity of polyamine compounds we used HepG2 human liver carcinoma cells and Hek293T human embryonic kidney epithelial cells. The viability of cell lines was determined using a 3-(4,5-dimethylthiazol-2-yl)-2,5-diphenyltetrazolium bromide (MTT) molecular probe as previously described by our group ([Fleeman et al., 2015]). Briefly, 247, 266, 271 (Hek293T), or 250, 271, 314 (HepG2), alongside control efflux pump inhibitor PaβN, were diluted in 10% DMF from 25 μg mL^-1 to 3 μg mL^-1 using twofold dilutions, before being added to cells in DMEM with 10% FBS and 1% penicillin/streptomycin. Cells were then incubated for 48 h at 37°C with 5% CO2. Following this, viability was assessed by the addition of MTT and measuring the OD570 in a Biotek plate reader. Percent recovery was determined compared to no drug controls.

[2] = tested on: P. aeruginosa proficient (1419) and deficient (1418) strain; assay: Aztreonam combination testing in efflux proficient and deficient strains; type: cell-based; conditions: strain 1419 (efflux proficient); polyamine 12.5 μg mL^-1, ½ X MIC aztreonam
Method: FIGURE 6 Confirming efflux pump inhibition by polyamines using efflux deficient strains. (A) A P. aeruginosa proficient (1419) and deficient (1418) strain were subjected to combination testing of the polyamines at 12.5 μg mL^-1 and ½ X MIC of aztreonam. Fold potentiation was calculated by dividing the CFU mL^-1 for aztreonam only by the CFU mL^-1 of the combined treatment groups. (B) Lead polyamine 247 was assessed for its ability to potentiate the activity of chloramphenicol toward S. aureus strain United States 300 and its norA mutant. Shown is the potentiated chloramphenicol EC90 calculated as described in A. Error bars are shown ± SEM.

A. baumannii (1643) = assay: Potentiation of levofloxacin; type: cell-based; conditions: increasing polyamine concentration
[3] = 25 µg ml-1 TPI, EC50 tetracycline no TPI / with TPI
[4] = 25 µg ml-1 TPI, EC90 tetracycline no TPI / with TPI
[5] = EC50 tetracycline without EPI / with EPI
[6] = EC90 tetracycline without EPI / with EPI
[7] = Hek293T human embryonic kidney epithelial cells, vs solvent only controls

Structure (SMILES)	FP* (fold potentiation of tetracycline EC50) [1, 3] [fold]	FP# (fold potentiation of tetracycline EC90) [1, 4] [fold]	FP* (fold potentiation of tetracycline EC50) [1, 5] [fold]	FP# (fold potentiation of tetracycline EC90) [1, 6] [fold]	EC50 [1] [µg/mL]	TPI (inhibitory concentration of polyamine alone) [1] [µg/mL]	potentiation of chloramphenicol EC90 (P. aeruginosa (1419))	recovery at 48 h, 25 μg mL^-1 (MTT cytotoxicity assay; [7]) [%]	potentiation of aztreonam [2]	recovery at 48 h, 25 μg mL^-1 (MTT cytotoxicity assay; HepG2 human liver carcinoma cells) [%]	potentiation of levofloxacin (A. baumannii (1643))
CNCCCC[C@H](CN)NC[C@H](Cc1ccccc1)NCCc1ccccc1 [compound 266]	6.8	5.8	6.8	5.8	> 25	> 25	highest potentiation values	72			
NCCC[C@H](CN)NC[C@H](Cc1ccccc1)NCCc1ccccc1 [compound 271]	8.2	8.5	8.2	8.5	> 25	> 25		75	best potentiators of aztreonam	74	dose response curve of antibiotic potentiation
